Measured values: patent publication US8293729B2 (Boehringer Ingelheim International GmbH, priority 2009, dated 2012)
pEC50: −log10 of the molar value.

Each molecule was assayed against T1, human GPR119 receptor (Homo sapiens, UniProt Q8TDV5, S329A/T327A) (assay: cAMP assay (LANCE cAMP-384) in HEK293 cells stably expressing mutant human GPR119 receptor). Details: HEK293, 20 min; at 10 μM; printed in EC50 column of the 36th table; read-out: stimulation in % at 10 μM.
T1 construct: N-terminal leader […]; expressed in transfected cells
T1 sequence (Q8TDV5 with tags, fused parts or gaps T327A/S329A): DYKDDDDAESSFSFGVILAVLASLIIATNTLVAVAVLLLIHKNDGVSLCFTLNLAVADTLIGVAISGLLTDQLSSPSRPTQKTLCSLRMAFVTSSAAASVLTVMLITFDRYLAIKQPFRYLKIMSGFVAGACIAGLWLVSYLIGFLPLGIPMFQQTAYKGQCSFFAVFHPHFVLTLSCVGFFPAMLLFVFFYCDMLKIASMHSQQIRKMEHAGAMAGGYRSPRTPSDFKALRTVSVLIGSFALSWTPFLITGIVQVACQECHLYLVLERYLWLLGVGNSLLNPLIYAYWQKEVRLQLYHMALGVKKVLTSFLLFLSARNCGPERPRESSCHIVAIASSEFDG
Assay type: cell-based
Experimental: Quantitative detection of cAMP accumulation from cells expressing human GPR119 receptor was achieved using Perkin Elmer's LANCE cAMP-384 Kit (Cat#AD0264) according to the manufacturer's protocol. Briefly, HEK293 cells stably expressing a mutant form of the human GPR119 receptor (Methionine 1 replaced with the amino acid sequence […] (SEQ ID NO: 1), and T327 & S329 changed to alanines) were grown to 50-70% confluency in cell culture media (DMEM, 10% heat inactivated Fetal Bovine Serum, 50 I.U./mL penicillin, 50 μg/mL streptomycin, 10 mM HEPES, 20 μg/mL G418 Sulfate). On the day of the assay, GPR119 stable HEK293 cells were lifted from the tissue culture plate and 1000 cells/well were incubated along with various concentrations of test compounds for 20 min at 37° C. Detection Buffer (50mM HEPES, 10mM calcium chloride, 0.35% Triton X-100, 1 mg/mL BSA) containing cAMP-specific antibody was then added to all wells and allowed to equilibrate in the dark for 10 minutes at room temperature. Upon equilibration, Detection Buffer containing europium-labeled cAMP tracer complex was added to all wells and allowed to react for 1 hour at room temperature. After 1 hour, bound europium-labeled cAMP tracer was measured using a Perkin Elmer ViewLux. The quantity of cAMP generated in each well was derived from a standard curve. EC50 was determined using nonlinear regression analysis of the cAMP values over a range of agonist concentration (12 points spanning the range from 30 μM to 100pM).
For some compounds for which no EC50 value could be determined, the efficacy is provided at a single concentration (10 μM) yielding % stimulation values.

In the case of `CC(C)CN1CCC(ON=C2CCN(c3ccc(S(C)(=O)=O)cc3F)CC2)CC1` [Example 66-21], the activation at 10 µM was 64%.

Same assay, conditions: HEK293, 20 min; single concentration 10 μM; given where no EC50 value could be determined; read-out: % stimulation at 10 μM

Going from `COc1cccc(-c2cc(F)c(N3CCC(=NOC4CCN(C(=O)OC(C)C)CC4)CC3)cc2F)n1` [Example 27-11] to `CC(C)OC(=O)N1CCC(ON=C2CCN(c3cc(F)c(C(=N)N)cc3F)CC2)CC1` [Example 23-1, 4-[1-(4-Carbamimidoyl-2,5-difluoro-phenyl)-piperidin-4-ylideneaminooxy]-piperidine-1-carboxylic acid isopropyl ester], the activation at 10 µM falls from 80% to 3%.

Same assay, conditions: cAMP accumulation, HEK293 cells stably expressing mutant human GPR119; read-out: EC50

Going from `CC(C)OC(=O)N1CCC(ON=C2CCN(c3cc(F)c(CN4CCCC4)cc3F)CC2)CC1` [Example 5-1, 4-[1-(2,5-Difluoro-4-pyrrolidin-1-ylmethyl-phenyl)-piperidin-4-ylideneaminooxy]-piperidine-1-carboxylic acid isopropyl ester] to `CC(C)OC(=O)N1CCC(ON=C2CCN(c3cc(F)c(Cn4cccc4)cc3F)CC2)CC1` [Example 14-14], the pEC50 rises from 5.11 to 6.33 (1.22 log units).

Going from `CC(C)OC(=O)N1CCC(ON=C2CCN(c3nccc(C(F)(F)F)n3)CC2)CC1` [Example 2-66] to `CC(C)OC(=O)N1CCC(ON=C2CCN(c3ncc(CO)cc3F)CC2)CC1` [Example 53-1, 4-(3′-Fluoro-5′-hydroxymethyl-2,3,5,6-tetrahydro-[1,2′]bipyridinyl-4-ylideneaminooxy)-piperidine-1-carboxylic acid isopropyl ester], the pEC50 rises from less than 5.00 to 6.65. The second is the more potent here.

First: CC(C)OC(=O)N1CCC(ON=C2CCN(c3cc(F)c(CN(C)CCCC(=O)O)cc3F)CC2)CC1 [Example 5-10]
Second: CCOC(=O)CNC(=O)NCc1cc(F)c(N2CCC(=NOC3CCN(C(=O)OC(C)C)CC3)CC2)cc1F [Example 16-9]
The pEC50 of the first is lower: less than 5.00 for the first, 6.40 for the second. The second is the more potent here.

`CC(C)OC(=O)N1CCC(ON=C2CCN(c3c(F)c(F)c(C(N)=O)c(F)c3F)CC2)CC1` [Example 2-57] and `CC(C)OC(=O)N1CCC(ON=C2CCN(c3cc(F)c([S+](C)[O-])cc3F)CC2)CC1` (stereo not shown) [Example 43-1, 4-[1-(2,5-Difluoro-4-methanesulfinyl-phenyl)-piperidin-4-ylideneaminooxy]-piperidine-1-carboxylic acid isopropyl ester] are within 0.2 log units of each other in pEC50: 7.25 for the first, 7.24 for the second.

`Cc1nnnn1Cc1cc(F)c(N2CCC(=NOC3CCN(C(=O)OC(C)C)CC3)CC2)cc1F` [Example 14-15] and `CC(C)OC(=O)N1CCC(ON=C2CCN(c3cc(F)c(Cn4cccn4)cc3F)CC2)CC1` [Example 14-1, 4-{1[2,5-Difluoro-4-(pyrazol-1-ylmethyl)-phenyl]-piperidin-4-ylideneaminooxy}-piperidine-1-carboxylic acid isopropyl ester] are within 0.2 log units of each other in pEC50: 7.41 for the first, 7.42 for the second.

First: CC(C)OC(=O)N1CCC(ON=C2CCN(c3cc(F)c(CN4CCN(C(=O)OC(C)(C)C)CC4=O)cc3F)CC2)CC1 [Example 15-3]
Second: CC(C)OC(=O)N1CCC(ON=C2CCN(c3cc(F)c(-c4cnn(C)c4)cc3F)CC2)CC1 [Example 27-34]
The pEC50 of the first is 0.51 log units lower: 6.39 for the first, 6.90 for the second. The second is the more potent here.

First: CC(C)OC(=O)N1CCC(ON=C2CCN(c3ccccc3)CC2)CC1 [Example 32-1, 4-(1-Phenyl-piperidin-4-ylideneaminooxy)-piperidine-1-carboxylic acid isopropyl ester]
Second: CC(C)OC(=O)N1CCC(ON=C2CCN(c3ccc(S(N)(=O)=O)cc3F)CC2)CC1 [Example 2-36]
The pEC50 of the first is lower: less than 5.00 for the first, 6.89 for the second.

Compared with `CC(C)OC(=O)N1CCC(ON=C2CCN(c3cc(F)c(-n4cccc4)cc3F)CC2)CC1` [Example 22-2], `CC(C)OC(=O)N1CCC(ON=C2CCN(c3cc(F)c(-c4cnco4)cc3F)CC2)CC1` [Example 20-1, 4-[1-(2,5-Difluoro-4-oxazol-5-yl-phenyl)-piperidin-4-ylideneaminooxy]-piperidine-1-carboxylic acid isopropyl ester] is 0.88 log units higher in pEC50: 6.12 for the first, 7.00 for the second.

Work on `CC(C)OC(=O)N1CCC(ON=C2CCN(c3cc(F)c(Cn4cnc5ccncc54)cc3F)CC2)CC1` [Example 14-8] yielded a pEC50 of 6.12.

Same assay, conditions: the 15th table; read-out: EC50

Compared with `CC(C)OC(=O)N1CCC(ON=C2CCN(c3cc(F)c(C(=O)N4CCC[C@H]4CN)cc3F)CC2)CC1` [Example 29-58], `CC(C)OC(=O)N1CCC(ON=C2CCN(c3cc(F)c(C(=O)N4CCN(C)CC4)cc3F)CC2)CC1` [Example 29-4] is 0.38 log units higher in pEC50: 6.72 for the first, 7.10 for the second.

Same assay, conditions: the 19th table; unit inferred; read-out: EC 50

Molecule `CCc1cnc(N2CCC(ON=C3CCN(c4cc(F)c(C(=O)NCC5CCCNC5)cc4F)CC3)CC2)nc1` (stereo not shown) [Example 29-93] has a pEC50 of 7.25.

Same assay, conditions: the 32nd table; read-out: EC50

`Cc1csc(N2CCC(ON=C3CCN(c4ccc(S(C)(=O)=O)cc4F)CC3)CC2)n1` [Example 63-17] and `Cc1cc(C)nc(N2CCC(ON=C3CCN(c4ccc(S(C)(=O)=O)cc4F)CC3)CC2)n1` [Example 63-18] cannot be ordered by pEC50: less than 5.00 for the first, less than 5.00 for the second.

`CS(=O)(=O)c1ccc(N2CCC(=NOC3CCN(c4ccc(Br)cn4)CC3)CC2)c(F)c1` [Example 63-20] was tested, and the pEC50 was 6.41.

Same assay, conditions: the 33rd table; read-out: EC50

Going from `CCOC(=O)C1CC1COC(=O)N1CCC(ON=C2CCN(c3ccc(S(C)(=O)=O)cc3F)CC2)CC1` (stereo not shown) [Example 64-31] to `CCC(C)COC(=O)N1CCC(ON=C2CCN(c3ccc(S(C)(=O)=O)cc3F)CC2)CC1` (stereo not shown) [Example 64-47], the pEC50 rises from 6.97 to 7.37 (0.40 log units). The second is the more potent here.

Going from `CC(C)N(CCOC(=O)N1CCC(ON=C2CCN(c3ccc(S(C)(=O)=O)cc3F)CC2)CC1)C(C)C` [Example 64-32] to `CC(C)CCOC(=O)N1CCC(ON=C2CCN(c3ccc(S(C)(=O)=O)cc3F)CC2)CC1` [Example 64-40], the pEC50 rises from less than 5.00 to 7.05.

`COC(=O)CC(C)OC(=O)N1CCC(ON=C2CCN(c3ccc(S(C)(=O)=O)cc3F)CC2)CC1` (stereo not shown) [Example 64-22] and `CS(=O)(=O)c1ccc(N2CCC(=NOC3CCN(C(=O)OCCC4CC4)CC3)CC2)c(F)c1` [Example 64-39] are within 0.2 log units of each other in pEC50: 6.71 for the first, 6.90 for the second.

Same assay, conditions: the 34th table, compounds 65-1 to 65-24; read-out: EC50

Going from `CS(=O)(=O)c1ccc(N2CCC(=NOC3CCN(CC(=O)OCc4ccccc4)CC3)CC2)c(F)c1` [Example 65-5] to `CC(C)NC(=O)CN1CCC(ON=C2CCN(c3ccc(S(C)(=O)=O)cc3F)CC2)CC1` [Example 65-4], the pEC50 falls from 5.47 to less than 5.00. The first is the more potent here.

`CS(=O)(=O)c1ccc(N2CCC(=NOC3CCN(C(=S)NC4CC4)CC3)CC2)c(F)c1` [Example 65-10] gave a pEC50 of less than 5.00.

Same assay, conditions: the 36th table, compounds 66-1 to 66-51; read-out: EC50

Compared with `COc1ccc(CN2CCC(ON=C3CCN(c4ccc(S(C)(=O)=O)cc4F)CC3)CC2)c(F)c1` [Example 66-50], `Cc1cccc(CN2CCC(ON=C3CCN(c4ccc(S(C)(=O)=O)cc4F)CC3)CC2)c1` [Example 66-25] is 0.23 log units higher in pEC50: 5.99 for the first, 6.22 for the second. The second is the more potent here.

`CC(C)Oc1ccc(CN2CCC(ON=C3CCN(c4ccc(S(C)(=O)=O)cc4F)CC3)CC2)cc1` [Example 66-40] and `CC(C)c1ccc(CN2CCC(ON=C3CCN(c4ccc(S(C)(=O)=O)cc4F)CC3)CC2)cc1` [Example 66-32] are the same in pEC50: 6.48 for the first, 6.48 for the second.

First: CCc1ccc(CN2CCC(ON=C3CCN(c4ccc(S(C)(=O)=O)cc4F)CC3)CC2)cc1 [Example 66-27]
Second: CC(=O)Nc1ccc(CN2CCC(ON=C3CCN(c4ccc(S(C)(=O)=O)cc4F)CC3)CC2)cc1 [Example 66-39]
The pEC50 of the first is higher: 6.96 for the first, less than 5.00 for the second.

Work on `CS(=O)(=O)c1ccc(N2CCC(=NOC3CCN(Cc4ccncc4)CC3)CC2)c(F)c1` [Example 66-4] yielded a pEC50 of less than 5.00.

Same assay, conditions: the 43rd table, compounds 75-1 to 75-38; read-out: EC50

Going from `CC(C)OC(=O)N1CCC(ON=C2CCN(c3cc(F)c(CC(=O)N4CC[C@H](CN)C4)cc3F)CC2)CC1` [Example 75-15] to `CC(C)OC(=O)N1CCC(ON=C2CCN(c3cc(F)c(CC(=O)N4CCCC(CN)C4)cc3F)CC2)CC1` (stereo not shown) [Example 75-22], the pEC50 falls from 7.54 to 6.97 (0.57 log units). The first is the more potent here.

Going from `CC(C)OC(=O)N1CCC(ON=C2CCN(c3cc(F)c(CC(=O)N4CCC[C@H]4CN4CCCC4)cc3F)CC2)CC1` [Example 75-29] to `CNC1CCN(C(=O)Cc2cc(F)c(N3CCC(=NOC4CCN(C(=O)OC(C)C)CC4)CC3)cc2F)CC1` [Example 75-21], the pEC50 rises from 5.54 to 6.90 (1.36 log units).

Going from `CC(C)OC(=O)N1CCC(ON=C2CCN(c3cc(F)c(CC(=O)NCC4CCNC4)cc3F)CC2)CC1` (stereo not shown) [Example 75-27] to `CC(C)OC(=O)N1CCC(ON=C2CCN(c3cc(F)c(CC(=O)NC4CCNC4)cc3F)CC2)CC1` (stereo not shown) [Example 75-17], the pEC50 rises from 6.10 to 6.82 (0.72 log units). The second is the more potent here.

Same assay, conditions: the 44th table, compounds 77-1 to 77-14; read-out: EC50

In the case of `CCc1cnc(N2CCC(ON=C3CCN(c4cc(F)c(CC(=O)NC5CCNCC5)cc4F)CC3)CC2)nc1` [Example 77-10], the pEC50 was 7.70.
